One experiment has as its system A549. Put plainly: Cytotoxicity against human A549 cells by SRB assay. Type of experiment: functional, cell-based.
For the next experiment, the system named is HL-60. Put plainly: Cytotoxicity against human HL60 cells by MTT assay. Type of experiment: functional, cell-based. (In general: Formazan colour is commonly taken as a measure of viable cells.)

In the case of `C=C(C)[C@@]1(OC(C)=O)[C@H](OC(C)=O)[C@@H]2[C@H](OC(C)=O)[C@@]3(C)O[C@@]4([C@@H]3OC(C)=O)[C@@H](OC(=O)c3ccccc3)[C@@H](C)C[C@H]4[C@@]2(O)[C@H](C)[C@@H]1OC(=O)c1ccccc1` [TRIGOHETERIN B], the IC50 in the experiment with A549 and with HL-60 was more than 10 µM in each case.
Consider `C=C(C)[C@@]12OC3(C)O[C@@H]1[C@@H]1[C@H](O)[C@@](C)(O)[C@@H](O)[C@@]4(O)[C@@H](C[C@H](C)[C@@H]4OC(C)=O)[C@@]1(O3)[C@H](C)[C@@H]2OC(=O)CCc1ccccc1` (relative stereo), for which the IC50 with A549 and in the experiment with HL-60 was more than 10 µM throughout.
`C=C(C)[C@@]12OC3(c4ccccc4)O[C@@H]1[C@@H]1[C@H]4O[C@@]4(C)[C@@H](O)[C@]4(O)C(=O)[C@@H](C)C[C@H]4[C@@]1(O3)[C@H](C)[C@@H]2OC(=O)c1ccccc1` (relative stereo): the IC50 in the experiment with A549 is 10 µM; with HL-60 it was 1.8 µM.
In the same order, the values of `C=C(C)[C@@]1(OC(C)=O)[C@H](OC(C)=O)[C@@H]2[C@H](OC(C)=O)[C@@]3(C)O[C@@]4([C@@H]3OC(C)=O)[C@@H](OC(=O)c3ccccc3)[C@](C)(OC(C)=O)C[C@H]4[C@@]2(O)[C@H](C)[C@@H]1OC(=O)c1ccccc1` (relative stereo) are more than 10 µM and more than 10 µM.
On to `CC(C)=CC(=O)C(O)/C(C)=C/CC[C@](C)(O)C1CCC(C)=CC1=O` (some centres not stated), for which the IC50 in the experiment with A549 and in the experiment on HL-60 was more than 10 µM in each case.
With `C=C(C)[C@@]12OC3(c4ccccc4)O[C@@H]1[C@@H]1[C@H](OC(C)=O)[C@@](C)(O)[C@@H](OC(=O)c4ccccc4)[C@@]4(O)[C@@H](C[C@H](C)[C@@H]4OC(C)=O)[C@@]1(O3)[C@H](C)[C@@H]2OC(C)=O` (relative stereo), the IC50 in the experiment on A549 and in the experiment on HL-60 was more than 10 µM throughout.

As a reminder, the IC50 is the concentration that inhibits the measured activity by half.

The values above are taken from ChEMBL document CHEMBL1926684, “Constituents of Trigonostemon heterophyllus” (J Nat Prod, 2011).
